Structures can show the parent of a compound that is named as a salt.
What was measured:
[1] = tested on: [^3 H]-GABA uptake; experiment: in vitro inhibition of [^3 H]-GABA uptake (rat cortical tissue homogenate); assay type: biochemical, Male wistar rat; conditions: tris HCl buffer pH 7.5, 60 minutes at 30° C.
Experimental: Values for in vitro inhibition of [^3 H]-GABA uptake for the invention compounds were assessed essentially by the method of Fjalland (Acta Pharmacol. Toxicol. 1978, 42, 73-76). Male wistar rat cortical tissue was gently homogenized by hand using a glass/PTFE homogenizer in 10 volumes of 0.32M sucrose. Incubation was performed in a 40 mM tris HCl buffer (pH 7.5 at 30° C.) containing […], 4 mM MgSO4, […] and 10 mM glucose, for 60 minutes at 30° C. Values for inhibition of GABA uptake for some representative compounds are recorded in Table I.

[2] = relatively polar compound; cited from earlier work
[3] = tested on: GABA uptake; conditions: cited from earlier work; for orally active inhibition of GABA uptake (in words): Yunger, L. M. et al., 1984, Krogsgaard-Larsen, P. et al., 1987, oral

Compound | IC50 [1] [nM] | orally active inhibition of GABA uptake (in words) [3] | also measured
Cc1ccccc1/C=N/OCCN1CCC[C@@H](C(=O)O)C1 [Example 1, E-(R )-1-(2-((((2-Methylphenyl)methylene)amino)oxy)ethyl)-3-piperidinecarboxylic acid hydrochloride] | > 9000 | – | –
CC(C)C=C(C=NOCCN1CCC[C@@H](C(=O)O)C1)c1ccccc1 [Example 2] | 236 | – | –
O=C(O)C1CCCNC1 (stereo not drawn) [nipecotic acid, 3-piperidinecarboxylic acid] | – | – | ability to cross the blood-brain barrier (in words) [2]: unable to cross the blood-brain barrier; inhibition of GABA uptake (in words) ([3]; from the synaptic cleft into presynaptic nerve terminals and glial cells): well-known and potent inhibitor of GABA uptake
O=C(O)C1CCCN(CCC=C(c2ccccc2)c2ccccc2)C1 (stereo not drawn) [SK&F 89976A, N-(4,4-diphenyl-3-buten-1-yl)nipecotic acid] | – | orally active inhibitors of GABA uptake | –
O=C(O)CC1CCN(CCC=C(c2ccccc2)c2ccccc2)C1 (stereo not drawn) [SK&F 100561, N-(4,4-diphenyl-3-buten-1-yl)-homo-β-proline] | – | orally active inhibitors of GABA uptake | –
O=C(O)C1CCCN(CCC=C(c2ccccc2)c2cccs2)C1 (stereo not drawn) [SK&F 100604J, N-(4-phenyl-4-(2-thienyl)-3-buten-1-yl)nipecotic acid] | – | orally active inhibitors of GABA uptake | –
O=C(O)C1=CCCN(CCC=C(c2ccccc2)c2ccccc2)C1 [SK&F 100330A, N-(4,4-diphenyl-3-buten-1-yl)guvacine] | – | orally active inhibitors of GABA uptake | –

More lines, main results first:

IC50 [1] [nM] | Compound | orally active inhibition of GABA uptake (in words) [3] | also measured
2000 | COC/C(=N\OCCN1CCC[C@@H](C(=O)O)C1)c1ccccc1 [Example 5, Z-(R)-1-(2-(((2-Methoxy-1-phenyl-1-ethylidene)amino)oxy)ethyl)-3-piperidinecarboxylic acid hydrochloride] | – | –
2200 | CCCCCCC/C(=N/OCCN1CCC[C@@H](C(=O)O)C1)c1ccccc1 [Example 3, Z-(R)-1-(2-(((1-Phenyl-1-octanylidene)amino)oxy)ethyl)-3-piperidinecarboxylic acid hydrochloride] | – | –
4500 | O=C(O)[C@@H]1CCCN(CCO/N=C(/c2ccccc2)C(F)(F)F)C1 [Example 6, Z-(R)-1-(2-(((1-Phenyl-2,2,2-trifluoro-1-ethylidene)amino)oxy)ethyl)-3-piperidinecarboxylic acid hydrochloride] | – | –
1100 | CCCCCCC/C(=N\OCCN1CCC[C@@H](C(=O)O)C1)c1ccccc1 [Example 4, E-(R)-1-(2-(((1-Phenyl-1-octanylidene)amino)oxy)ethyl)-3-piperidinecarboxylic acid hydrochloride] | – | –

— US5608069A, “1-substituted, 3-carboxylic acid piperidine derivatives” (Novo Nordisk A/S, priority 1993, dated 1997)
